Assay results taken from patent US20250353873A1, “COMPOUNDS AND METHODS FOR MODULATING APOE EXPRESSION” (Ionis Pharmaceuticals, Inc., priority 2024, published 2025).
pIC50: −log10 of the molar value. Strand notation (5' to 3'): a small letter for the sugar, then the base; units joined by * are phosphorothioate-linked, units joined directly phosphodiester-linked; [ ] holds rarer units or linkages, { } end groups; capitals alone tell only the bases. [ms] = mesyl phosphoramidate linkage; e = 2'-O-(2-methoxyethyl) (MOE); [5mC] = 5-methylcytosine; d = 2'-deoxy (DNA)

Key:
human APOE RNA [1] = experiment: Activity in APOE C57BL/6NTac-Apoeem7250 knock-in mice, single ICV bolus, 16 weeks (Example 12); assay type: in vivo; conditions: single ICV bolus 300 μg, 16 weeks post treatment, normalized to mouse Ppia
Description: Modified oligonucleotides described above were tested in the APOE C57BL/6NTac-Apoeem7250 knock-in mouse model described above.
APOE C57BL/6NTac-Apoeem7250 knock-in mice were divided into groups of 3-4 mice each. Each mouse received a single intracerebroventricular (ICV) bolus of 300 μg of modified oligonucleotide. A group of 4 mice received a single ICV bolus with PBS as a negative control.
Sixteen weeks post treatment, mice were sacrificed and RNA was extracted from cortical brain tissue and spinal cord for quantitative real-time RT-PCR analysis of RNA expression of APOE using primer probe set RTS3073 (described herein above). APOE RNA levels were normalized to mouse Ppia. Mouse Ppia was amplified using primer probe set m_cyclo24 (described herein above). Results are presented as percent human APOE RNA relative to the amount of human APOE RNA in PBS treated animals, (% control). Each experiment is identified in separate tables below.

human APOE RNA [2] = experiment: Dose-dependent inhibition of human APOE RNA in HepG2 cells, electroporation, 24 hours (Example 6); assay type: cell-based
Description: Modified oligonucleotides selected from the examples above were tested at various doses in HepG2.
HepG2 cells plated at a density of 50,000 cells per well were treated by electroporation with various concentrations of modified oligonucleotide as specified in the tables below. […] APOE RNA levels were measured using the human primer probe set RTS3073 (described herein above). APOE RNA levels were normalized to human GAPDH. Human GAPDH was amplified using human primer probe set RTS 104 (described herein above). Results are presented as percent APOE RNA, relative to the amount of APOE RNA in untreated control cells (% UTC). The half maximal inhibitory concentration (IC50) of each modified oligonucleotide was calculated in GraphPad Prism 10 (GraphPad Software, San Diego, CA) and is also presented in the tables below.

1693046: 5-10-5 MOE gapmer CTTGGTGAATCTTTATTAAA, linkages ssssszzzzzsssssssss (antisense e[5mC]*eT*eT*eG*eG*dT[ms]dG[ms]dA[ms]dA[ms]dT[ms]d[5mC]*dT*dT*dT*dA*eT*eT*eA*eA*eA) [compound 1693046]
APOE RNA (% control) Cortex (human APOE RNA [1]): 106 % control | APOE RNA (% control) Spinal Cord (human APOE RNA [1]): 80 % control

1693053: 5-10-5 MOE gapmer TTGGTGAATCTTTATTAAAC, linkages ssssszzzsssssssosss (antisense eT*eT*eG*eG*eT*dG[ms]dA[ms]dA[ms]dT*d[5mC]*dT*dT*dT*dA*dT*eTeA*eA*eA*e[5mC]) [compound 1693053]
APOE RNA (% control) Cortex (human APOE RNA [1]): 99 % control | APOE RNA (% control) Spinal Cord (human APOE RNA [1]): 99 % control

1693055: 5-10-5 MOE gapmer TTGGTGAATCTTTATTAAAC, linkages sososzzzsssssssosss (antisense eT*eTeG*eGeT*dG[ms]dA[ms]dA[ms]dT*d[5mC]*dT*dT*dT*dA*dT*eTeA*eA*eA*e[5mC]) [compound 1693055]
APOE RNA (% control) Cortex (human APOE RNA [1]): 95 % control | APOE RNA (% control) Spinal Cord (human APOE RNA [1]): 67 % control

1693056: 5-10-5 MOE gapmer TTGGTGAATCTTTATTAAAC, linkages ssosszzzssssszsosss (antisense eT*eT*eGeG*eT*dG[ms]dA[ms]dA[ms]dT*d[5mC]*dT*dT*dT*dA[ms]dT*eTeA*eA*eA*e[5mC]) [compound 1693056]
APOE RNA (% control) Cortex (human APOE RNA [1]): 105 % control | APOE RNA (% control) Spinal Cord (human APOE RNA [1]): 118 % control

1693057: 5-10-5 MOE gapmer TTGGTGAATCTTTATTAAAC, linkages ssssszzzssssszsosss (antisense eT*eT*eG*eG*eT*dG[ms]dA[ms]dA[ms]dT*d[5mC]*dT*dT*dT*dA[ms]dT*eTeA*eA*eA*e[5mC]) [compound 1693057]
APOE RNA (% control) Cortex (human APOE RNA [1]): 125 % control | APOE RNA (% control) Spinal Cord (human APOE RNA [1]): 101 % control

1693058: 5-10-5 MOE gapmer TTGGTGAATCTTTATTAAAC, linkages sssoszzzssssszsosss (antisense eT*eT*eG*eGeT*dG[ms]dA[ms]dA[ms]dT*d[5mC]*dT*dT*dT*dA[ms]dT*eTeA*eA*eA*e[5mC]) [compound 1693058]
APOE RNA (% control) Cortex (human APOE RNA [1]): 113 % control | APOE RNA (% control) Spinal Cord (human APOE RNA [1]): 80 % control

1693059: 5-10-5 MOE gapmer TTGGTGAATCTTTATTAAAC, linkages ssssszzzssssszsssss (antisense eT*eT*eG*eG*eT*dG[ms]dA[ms]dA[ms]dT*d[5mC]*dT*dT*dT*dA[ms]dT*eT*eA*eA*eA*e[5mC]) [compound 1693059]
APOE RNA (% control) Cortex (human APOE RNA [1]): 89 % control | APOE RNA (% control) Spinal Cord (human APOE RNA [1]): 98 % control

1693060: 5-10-5 MOE gapmer TTGGTGAATCTTTATTAAAC, linkages ssssszzzsssszzsosss (antisense eT*eT*eG*eG*eT*dG[ms]dA[ms]dA[ms]dT*d[5mC]*dT*dT*dT[ms]dA[ms]dT*eTeA*eA*eA*e[5mC]) [compound 1693060]
APOE RNA (% control) Cortex (human APOE RNA [1]): 93 % control | APOE RNA (% control) Spinal Cord (human APOE RNA [1]): 93 % control

1693061: 5-10-5 MOE gapmer TTGGTGAATCTTTATTAAAC, linkages sssoszzzsssszzsssss (antisense eT*eT*eG*eGeT*dG[ms]dA[ms]dA[ms]dT*d[5mC]*dT*dT*dT[ms]dA[ms]dT*eT*eA*eA*eA*e[5mC]) [compound 1693061]
APOE RNA (% control) Cortex (human APOE RNA [1]): 91 % control | APOE RNA (% control) Spinal Cord (human APOE RNA [1]): 99 % control

1693062: 5-10-5 MOE gapmer TTGGTGAATCTTTATTAAAC, linkages ssssozzzsssszzsssss (antisense eT*eT*eG*eG*eTdG[ms]dA[ms]dA[ms]dT*d[5mC]*dT*dT*dT[ms]dA[ms]dT*eT*eA*eA*eA*e[5mC]) [compound 1693062]
APOE RNA (% control) Cortex (human APOE RNA [1]): 98 % control | APOE RNA (% control) Spinal Cord (human APOE RNA [1]): 110 % control

1693063: 5-10-5 MOE gapmer TTGGTGAATCTTTATTAAAC, linkages ssssszzzsssszzsssss (antisense eT*eT*eG*eG*eT*dG[ms]dA[ms]dA[ms]dT*d[5mC]*dT*dT*dT[ms]dA[ms]dT*eT*eA*eA*eA*e[5mC]) [compound 1693063]
APOE RNA (% control) Cortex (human APOE RNA [1]): 97 % control | APOE RNA (% control) Spinal Cord (human APOE RNA [1]): 87 % control

1693064: 5-10-5 MOE gapmer ACTTGGTGAATCTTTATTAA, linkages soossssszzsssssosss (antisense eA*e[5mC]eTeT*eG*dG*dT*dG*dA[ms]dA[ms]dT*d[5mC]*dT*dT*dT*eAeT*eT*eA*eA) [compound 1693064]
APOE RNA (% control) Cortex (human APOE RNA [1]): 83 % control | APOE RNA (% control) Spinal Cord (human APOE RNA [1]): 48 % control

1693065: 5-10-5 MOE gapmer ACTTGGTGAATCTTTATTAA, linkages soossssszzsssssssss (antisense eA*e[5mC]eTeT*eG*dG*dT*dG*dA[ms]dA[ms]dT*d[5mC]*dT*dT*dT*eA*eT*eT*eA*eA) [compound 1693065]
APOE RNA (% control) Cortex (human APOE RNA [1]): 82 % control | APOE RNA (% control) Spinal Cord (human APOE RNA [1]): 46 % control

1693066: 5-10-5 MOE gapmer ACTTGGTGAATCTTTATTAA, linkages sssssssszzsssssooss (antisense eA*e[5mC]*eT*eT*eG*dG*dT*dG*dA[ms]dA[ms]dT*d[5mC]*dT*dT*dT*eAeTeT*eA*eA) [compound 1693066]
APOE RNA (% control) Cortex (human APOE RNA [1]): 88 % control | APOE RNA (% control) Spinal Cord (human APOE RNA [1]): 73 % control

1693067: 5-10-5 MOE gapmer ACTTGGTGAATCTTTATTAA, linkages ssosssszzzszsssssss (antisense eA*e[5mC]*eTeT*eG*dG*dT*dG[ms]dA[ms]dA[ms]dT*d[5mC][ms]dT*dT*dT*eA*eT*eT*eA*eA) [compound 1693067]
APOE RNA (% control) Cortex (human APOE RNA [1]): 97 % control | APOE RNA (% control) Spinal Cord (human APOE RNA [1]): 162 % control

1693068: 5-10-5 MOE gapmer ACTTGGTGAATCTTTATTAA, linkages sssossszzzszsssssss (antisense eA*e[5mC]*eT*eTeG*dG*dT*dG[ms]dA[ms]dA[ms]dT*d[5mC][ms]dT*dT*dT*eA*eT*eT*eA*eA) [compound 1693068]
APOE RNA (% control) Cortex (human APOE RNA [1]): 86 % control | APOE RNA (% control) Spinal Cord (human APOE RNA [1]): 72 % control

1693069: 5-10-5 MOE gapmer ACTTGGTGAATCTTTATTAA, linkages ssssosszzzszsssssss (antisense eA*e[5mC]*eT*eT*eGdG*dT*dG[ms]dA[ms]dA[ms]dT*d[5mC][ms]dT*dT*dT*eA*eT*eT*eA*eA) [compound 1693069]
APOE RNA (% control) Cortex (human APOE RNA [1]): 78 % control | APOE RNA (% control) Spinal Cord (human APOE RNA [1]): 66 % control

1693070: 5-10-5 MOE gapmer ACTTGGTGAATCTTTATTAA, linkages ssssssszzzszsssosss (antisense eA*e[5mC]*eT*eT*eG*dG*dT*dG[ms]dA[ms]dA[ms]dT*d[5mC][ms]dT*dT*dT*eAeT*eT*eA*eA) [compound 1693070]
APOE RNA (% control) Cortex (human APOE RNA [1]): 86 % control | APOE RNA (% control) Spinal Cord (human APOE RNA [1]): 76 % control

1693071: 5-10-5 MOE gapmer ACTTGGTGAATCTTTATTAA, linkages ssssssszzzzzsssosss (antisense eA*e[5mC]*eT*eT*eG*dG*dT*dG[ms]dA[ms]dA[ms]dT[ms]d[5mC][ms]dT*dT*dT*eAeT*eT*eA*eA) [compound 1693071]
APOE RNA (% control) Cortex (human APOE RNA [1]): 68 % control | APOE RNA (% control) Spinal Cord (human APOE RNA [1]): 66 % control

1693072: 5-10-5 MOE gapmer ACTTGGTGAATCTTTATTAA, linkages ssssosszzzzzsssssss (eA*e[5mC]*eT*eT*eGdG*dT*dG[ms]dA[ms]dA[ms]dT[ms]d[5mC][ms]dT*dT*dT*eA*eT*eT*eA*eA) [compound 1693072]
APOE RNA (% control) Cortex (human APOE RNA [1]): 82 % control | APOE RNA (% control) Spinal Cord (human APOE RNA [1]): 61 % control

1736518: 6-10-4 MOE gapmer CTTGGTGAATCTTTATTAAA, linkages soossszzzssssssssss (e[5mC]*eTeTeG*eG*eT*dG[ms]dA[ms]dA[ms]dT*d[5mC]*dT*dT*dT*dA*dT*eT*eA*eA*eA) [compound 1736518]
pIC50 (human APOE RNA [2]): 6.14 | APOE RNA (% UTC) (human APOE RNA [2]; 5 nM): 93 % UTC | APOE RNA (% UTC) (human APOE RNA [2]; 13 nM): 97 % UTC | APOE RNA (% UTC) (human APOE RNA [2]; 33 nM): 99 % UTC | APOE RNA (% UTC) (human APOE RNA [2]; 82 nM): 83 % UTC | APOE RNA (% UTC) (human APOE RNA [2]; 205 nM): 64 % UTC | APOE RNA (% UTC) (human APOE RNA [2]; 512 nM): 44 % UTC | APOE RNA (% UTC) (human APOE RNA [2]; 1,280 nM): 37 % UTC | APOE RNA (% UTC) (human APOE RNA [2]; 3,200 nM): 31 % UTC | APOE RNA (% UTC) (human APOE RNA [2]; 8,000 nM): 30 % UTC | APOE RNA (% UTC) (human APOE RNA [2]; 20,000 nM): 13 % UTC

1736519: 6-10-4 MOE gapmer CTTGGTGAATCTTTATTAAA, linkages sososszzzssssssssss (e[5mC]*eTeT*eGeG*eT*dG[ms]dA[ms]dA[ms]dT*d[5mC]*dT*dT*dT*dA*dT*eT*eA*eA*eA) [compound 1736519]
pIC50 (human APOE RNA [2]): 6.47 | APOE RNA (% UTC) (human APOE RNA [2]; 5 nM): 107 % UTC | APOE RNA (% UTC) (human APOE RNA [2]; 13 nM): 104 % UTC | APOE RNA (% UTC) (human APOE RNA [2]; 33 nM): 91 % UTC | APOE RNA (% UTC) (human APOE RNA [2]; 82 nM): 75 % UTC | APOE RNA (% UTC) (human APOE RNA [2]; 205 nM): 53 % UTC | APOE RNA (% UTC) (human APOE RNA [2]; 512 nM): 42 % UTC | APOE RNA (% UTC) (human APOE RNA [2]; 1,280 nM): 25 % UTC | APOE RNA (% UTC) (human APOE RNA [2]; 3,200 nM): 15 % UTC | APOE RNA (% UTC) (human APOE RNA [2]; 8,000 nM): 16 % UTC | APOE RNA (% UTC) (human APOE RNA [2]; 20,000 nM): 5 % UTC
